In patent US8796279B2, “4′-demethylepipodophyllotoxin derivative, preparation method and use thereof” (Hubei University of Technology, priority 2010, dated 2014):
Read-outs that look alike come from different tables or passages of the source.

Key:
[1] = system: human proximal tubule cell strain HK-2; assay: HK-2 normal cell growth inhibition (cell toxicity), MTT method; format: cell-based; conditions: HK-2 normal cells, from IC50 values
[2] = as above; format: cell-based, human; conditions: human, HK-2 cells (proximal tubule); HK-2 normal cells, MTT, 48 h; read-out: half growth inhibition concentration (IC50), cell toxicity
[3] = system: human pulmonary cancer cell strain A549; assay: A549 tumor cell growth inhibition, MTT method; conditions: read-out: half growth inhibition concentration (IC50)
[4] = system: HepG2 tumor cell strain; assay: HepG2 tumor cell growth inhibition, MTT method; conditions: for IC50: Homo sapiens, HepG2, 48 h, read-out: half growth inhibition concentration (IC50)
[5] = system: human gastric cancer cell strain BGC-823; assay: BGC-823 tumor cell growth inhibition, MTT method; format: cell-based; conditions: read-out: half growth inhibition concentration (IC50)
[6] = Lipid-water partition coefficient test (n-octanol / biological brine, UV)
Procedure: I mg of each of 4-(2,3,5,6-tetramethylpyrazin-1-yl)-4′-demethylepipodophyllotoxin, 4′-demethylepipodophyllotoxin and podophyllotoxin was respectively dissolved into 3 centrifuge tubes of 10 mL each containing 2 mL n-octanol and 2 mL biological brine, the tubes were capped tight, shook thoroughly for 10 min, and subsequently let stand for 20 min. 0.2 mL of the organic- and water phase were respectively pipetted into clean test tubes. Absorbance (A) values of the organic- and water phase were measured using UV method, respectively, using A to calculate the weights of the drugs dissolved in the organic- and water layer, Walcohol and Wwater, respectively. The operations were repeated 3 times, averages were calculated, lipid-water partition coefficients were calculated using Eq. 1:
[formula] where Walcohol and Wwater denote the measured weights of drugs in n-octanol- and water phase, respectively; Valcohol and Vwater denote volumes of n-octanol- and water phase, respectively. 3. Results

[7] = Homo sapiens, BGC-823 cells, MTT, 48 h

Structure (SMILES)	IC50 at 48 h [2]	IC50 ([3]; Homo sapiens, A549, 48 h)	IC50 [4]	IC50 [5, 7]	logP [6]	other results
COc1cc([C@@H]2c3cc4c(cc3[C@@H]([n+]3c(C)c(C)nc(C)c3C)[C@H]3COC(=O)[C@H]23)OCO4)cc(OC)c1O [4-(2,3,5,6-tetramethylpyrazin-1-yl)-4′-demethylepipodophyllotoxin]	240 nM	230 nM	290 nM	60 nM	0.66	cell toxicity decreased in comparison with podophyllotoxin [1]: ~66 times; inhibition activity raised in comparison with etoposide ([4]; HepG2 cells, from IC50 values): 2.7 times; lipid water partition coefficient increased than 4′-demethylepipodophyllotoxin ([6]; from logP values): 16%; lipid water partition coefficient increased than podophyllotoxin ([6]; from logP values): 94%
COc1cc([C@@H]2c3cc4c(cc3[C@@H](O)[C@H]3COC(=O)[C@H]23)OCO4)cc(OC)c1O [4′-demethylepipodophyllotoxin]						IC50 ([3]; A549 cells, MTT, 48 h): 450 nM; IC50 ([5]; BGC-823 cells, MTT, 48 h): 398000 nM
COc1cc([C@@H]2c3cc4c(cc3[C@@H](O[C@@H]3O[C@@H]5CO[C@@H](C)O[C@H]5[C@H](O)[C@H]3O)[C@H]3COC(=O)[C@H]23)OCO4)cc(OC)c1O [etoposide]		165000 nM	1060 nM	14000 nM		
COc1cc([C@@H]2c3cc4c(cc3[C@H](O)[C@H]3COC(=O)[C@H]23)OCO4)cc(OC)c1OC [podophyllotoxin]	3.5 nM				0.34	IC50 ([5]; Homo sapiens, BGC-823, 48 h): 529000 nM
Cc1nc(C)c(C)nc1C [tetramethylpyrazine]					> 5	lipid-water partition coefficient (logP) [6]: >5
